Experimental data published in BigSolDB 2.1.

Nc1cccc2ccncc12
solubility (mole fraction)
Details | in DMF | in acetone | in acetonitrile | in ethanol | in ethylene glycol | in isopropanol | in methanol | in n-propanol | in propylene glycol | in water
278.15 K | 0.00564 | 0.00309 | 0.00458 | 0.00135 | 0.000113 | 0.00283 | 0.000354 | 0.00359 | 0.000176 | 3.46e-05
283.15 K | 0.00693 | 0.00371 | 0.00539 | 0.00161 | 0.000132 | 0.00344 | 0.000411 | 0.0042 | 0.000211 | 4e-05
288.15 K | 0.00832 | 0.00439 | 0.00651 | 0.00191 | 0.000156 | 0.00401 | 0.000483 | 0.00497 | 0.000254 | 4.6e-05
293.15 K | 0.01 | 0.00532 | 0.00789 | 0.0022 | 0.000183 | 0.00477 | 0.000559 | 0.00593 | 0.000304 | 5.45e-05
298.15 K | 0.0119 | 0.00636 | 0.00939 | 0.00261 | 0.00022 | 0.00566 | 0.000664 | 0.007 | 0.000366 | 6.21e-05
303.15 K | 0.0141 | 0.00752 | 0.0111 | 0.00308 | 0.000261 | 0.00664 | 0.000773 | 0.00831 | 0.000433 | 7.2e-05
308.15 K | 0.0167 | 0.00896 | 0.0131 | 0.00365 | 0.000313 | 0.00784 | 0.000919 | 0.00984 | 0.000516 | 8.42e-05
313.15 K | 0.0196 | 0.0105 | 0.0156 | 0.0043 | 0.000367 | 0.00934 | 0.00107 | 0.0115 | 0.000608 | 9.8e-05
318.15 K | 0.023 | 0.0122 | 0.0182 | 0.00508 | 0.000429 | 0.0109 | 0.00128 | 0.0135 | 0.000718 | 0.000113
323.15 K | 0.0267 | 0.0143 | 0.0219 | 0.00602 | 0.000505 | 0.0128 | 0.00151 | 0.0158 | 0.00085 | 0.000132
